Active and inactive are the calls of the source. The rule behind the calls is not given here.
Columns and labels:
K562/Adr [1] = assay: Antiproliferative activity against human K562/ADR cells after 72 hrs by CCK8 assay; format: functional, cell-based
K562 [2] = assay: Antiproliferative activity against human K562 cells after 72 hrs by CCK8 assay; format: functional, cell-based; conditions: K562, 72 h
K562 [3] = assay: Resistance factor, ratio of IC50 for human K562/ADR cells to IC50 for human K562 cells; format: functional
K562/Adr [4] = assay: Potency index, ratio of podophyllotoxin IC50 to compound IC50 for human K562/ADR cells; format: functional
K562/Adr [5] = assay: Potency index, ratio of etoposide IC50 to compound IC50 for human K562/ADR cells; format: functional
K562/Adr [6] = assay: Potency index, ratio of adriamycin IC50 to compound IC50 for human K562/ADR cells; format: functional
K562 [7] = assay: Potency index, ratio of etoposide IC50 to compound IC50 for human K562 cells; format: functional
K562 [8] = assay: Potency index, ratio of adriamycin IC50 to compound IC50 for human K562 cells; format: functional
K562/Adr [9] = assay: Cell cycle arrest in human K562/ADR cells assessed as accumulation in S phase at 0.05 uM after 48 hrs by propidium iodide staining based flow cytometry (reference value: 43.39 +/- 0.69%); format: functional
K562/Adr [10] = assay: Cell cycle arrest in human K562/ADR cells assessed as accumulation in S phase at 0.1 uM after 48 hrs by propidium iodide staining based flow cytometry (reference value: 43.39 +/- 0.69%); format: functional
K562/Adr [11] = assay: Induction of apoptosis in human K562/ADR cells assessed as live cells at 0.05 uM after 48 hrs by Annexin V-APC/7-AAD staining based flow cytometry (reference value: 91.65%); format: functional
K562/Adr [12] = assay: Induction of apoptosis in human K562/ADR cells assessed as early apoptotic cells at 0.05 uM after 48 hrs by Annexin V-APC/7-AAD staining based flow cytometry (reference value: 1.99%); format: functional
K562/Adr [13] = assay: Induction of apoptosis in human K562/ADR cells assessed as late apoptotic cells at 0.05 uM after 48 hrs by Annexin V-APC/7-AAD staining based flow cytometry (reference value: 3.89%); format: functional
K562/Adr [14] = assay: Induction of apoptosis in human K562/ADR cells assessed as necrotic cells at 0.05 uM after 48 hrs by Annexin V-APC/7-AAD staining based flow cytometry (reference value: 2.47%); format: functional
K562/Adr [15] = assay: Induction of apoptosis in human K562/ADR cells assessed as live cells at 0.1 uM after 48 hrs by Annexin V-APC/7-AAD staining based flow cytometry (reference value: 91.65%); format: functional
K562/Adr [16] = assay: Induction of apoptosis in human K562/ADR cells assessed as early apoptotic cells at 0.1 uM after 48 hrs by Annexin V-APC/7-AAD staining based flow cytometry (reference value: 1.99%); format: functional
K562/Adr [17] = assay: Induction of apoptosis in human K562/ADR cells assessed as late apoptotic cells at 0.1 uM after 48 hrs by Annexin V-APC/7-AAD staining based flow cytometry (reference value: 3.89%); format: functional
K562/Adr [18] = assay: Induction of apoptosis in human K562/ADR cells assessed as necrotic cells at 0.1 uM after 48 hrs by Annexin V-APC/7-AAD staining based flow cytometry (reference value: 2.47%); format: functional
K562/Adr [19] = assay: Induction of apoptosis in human K562/ADR cells assessed as nuclear fragmentation at 0.05 to 0.1 uM after 48 hrs by Hoechst 33342 staining based fluorescent microscopic analysis; format: functional, cell-based
K562/Adr [20] = assay: Induction of apoptosis in human K562/ADR cells assessed as chromatin condensation at 0.05 to 0.1 uM after 48 hrs by Hoechst 33342 staining based fluorescent microscopic analysis; format: functional, cell-based
[21] = molecular target: T1, Mitogen-activated protein kinase; ERK1/ERK2 (Homo sapiens) (UniProt P27361+P28482); assay: Induction of ERK1/2 phosphorylation in human K562/ADR cells at 0.05 uM after 48 hrs by Western blot analysis relative to control; format: cell-based
[22] = molecular target: T1, Mitogen-activated protein kinase; ERK1/ERK2 (Homo sapiens); assay: Induction of ERK1/2 phosphorylation in human K562/ADR cells at 0.1 uM after 48 hrs by Western blot analysis relative to control; format: cell-based
[23] = molecular target: T1, Mitogen-activated protein kinase; ERK1/ERK2 (Homo sapiens); assay: Induction of ERK1/2 phosphorylation in human K562/ADR cells at 0.1 uM after 48 hrs in presence of ERK1/2 inhibitor U0126 by Western blot analysis relative to control; format: cell-based
K562/Adr [24] = assay: Effect on total ERK1/2 protein expression level in human K562/ADR cells at 0.05 uM after 48 hrs by Western blot analysis relative to control; format: ADME, cell-based
K562/Adr [25] = assay: Effect on total ERK1/2 protein expression level in human K562/ADR cells at 0.1 uM after 48 hrs by Western blot analysis relative to control; format: ADME, cell-based
K562/Adr [26] = assay: Effect on total ERK1/2 protein expression level in human K562/ADR cells at 0.1 uM after 48 hrs in presence of ERK1/2 inhibitor U0126 by Western blot analysis relative to control; format: ADME, cell-based
[27] = molecular target: T1, Mitogen-activated protein kinase; ERK1/ERK2 (Homo sapiens); assay: Activation of ERK1/2 signalling in human K562/ADR cells assessed as suppression of CDK1 protein expression at 0.05 uM after 48 hrs by Western blot analysis relative to control; format: cell-based
[28] = molecular target: T1, Mitogen-activated protein kinase; ERK1/ERK2 (Homo sapiens); assay: Activation of ERK1/2 signalling in human K562/ADR cells assessed as suppression of CDK1 protein expression at 0.1 uM after 48 hrs by Western blot analysis relative to control; format: cell-based
[29] = molecular target: T1, Mitogen-activated protein kinase; ERK1/ERK2 (Homo sapiens); assay: Activation of ERK1/2 signalling in human K562/ADR cells assessed as suppression of CDK1 protein expression at 0.1 uM after 48 hrs in presence of ERK1/2 inhibitor U0126 by Western blot analysis relative to control; format: cell-based
[30] = molecular target: T1, Mitogen-activated protein kinase; ERK1/ERK2 (Homo sapiens); assay: Activation of ERK1/2 signalling in human K562/ADR cells assessed as suppression of CyclinB1 protein expression at 0.05 uM after 48 hrs by Western blot analysis relative to control; format: cell-based
[31] = molecular target: T1, Mitogen-activated protein kinase; ERK1/ERK2 (Homo sapiens); assay: Activation of ERK1/2 signalling in human K562/ADR cells assessed as suppression of CyclinB1 protein expression at 0.1 uM after 48 hrs by Western blot analysis relative to control; format: cell-based
[32] = molecular target: T1, Mitogen-activated protein kinase; ERK1/ERK2 (Homo sapiens); assay: Activation of ERK1/2 signalling in human K562/ADR cells assessed as suppression of CyclinB1 protein expression at 0.1 uM after 48 hrs in presence of ERK1/2 inhibitor U0126 by Western blot analysis relative to control; format: cell-based
[33] = molecular target: T1, Mitogen-activated protein kinase; ERK1/ERK2 (Homo sapiens); assay: Activation of ERK1/2 signalling in human K562/ADR cells assessed as increase in cleaved caspase-3 expression at 0.05 uM after 48 hrs by Western blot analysis relative to control; format: cell-based
[34] = molecular target: T1, Mitogen-activated protein kinase; ERK1/ERK2 (Homo sapiens); assay: Activation of ERK1/2 signalling in human K562/ADR cells assessed as increase in cleaved caspase-3 expression at 0.1 uM after 48 hrs by Western blot analysis relative to control; format: cell-based
[35] = molecular target: T1, Mitogen-activated protein kinase; ERK1/ERK2 (Homo sapiens); assay: Activation of ERK1/2 signalling in human K562/ADR cells assessed as increase in cleaved caspase-3 expression at 0.1 uM after 48 hrs in presence of ERK1/2 inhibitor U0126 by Western blot analysis relative to control; format: cell-based
[36] = molecular target: T1, Mitogen-activated protein kinase; ERK1/ERK2 (Homo sapiens); assay: Activation of ERK1/2 signalling in human K562/ADR cells assessed as increase in cleaved caspase-8 expression at 0.05 uM after 48 hrs by Western blot analysis relative to control; format: cell-based
[37] = molecular target: T1, Mitogen-activated protein kinase; ERK1/ERK2 (Homo sapiens); assay: Activation of ERK1/2 signalling in human K562/ADR cells assessed as increase in cleaved caspase-8 expression at 0.1 uM after 48 hrs by Western blot analysis relative to control; format: cell-based
[38] = molecular target: T1, Mitogen-activated protein kinase; ERK1/ERK2 (Homo sapiens); assay: Activation of ERK1/2 signalling in human K562/ADR cells assessed as increase in cleaved caspase-8 expression at 0.1 uM after 48 hrs in presence of ERK1/2 inhibitor U0126 by Western blot analysis relative to control; format: cell-based
[39] = molecular target: T1, Mitogen-activated protein kinase; ERK1/ERK2 (Homo sapiens); assay: Activation of ERK1/2 signalling in human K562/ADR cells assessed as increase in cleaved caspase-9 expression at 0.05 uM after 48 hrs by Western blot analysis relative to control; format: cell-based
[40] = molecular target: T1, Mitogen-activated protein kinase; ERK1/ERK2 (Homo sapiens); assay: Activation of ERK1/2 signalling in human K562/ADR cells assessed as increase in cleaved caspase-9 expression at 0.1 uM after 48 hrs by Western blot analysis relative to control; format: cell-based
[41] = molecular target: T1, Mitogen-activated protein kinase; ERK1/ERK2 (Homo sapiens); assay: Activation of ERK1/2 signalling in human K562/ADR cells assessed as increase in cleaved caspase-9 expression at 0.1 uM after 48 hrs in presence of ERK1/2 inhibitor U0126 by Western blot analysis relative to control; format: cell-based
[42] = molecular target: T1, Mitogen-activated protein kinase; ERK1/ERK2 (Homo sapiens); assay: Activation of ERK1/2 signalling in human K562/ADR cells assessed as suppression of P-gp expression at 0.05 uM after 48 hrs by Western blot analysis relative to control; format: cell-based
[43] = molecular target: T1, Mitogen-activated protein kinase; ERK1/ERK2 (Homo sapiens); assay: Activation of ERK1/2 signalling in human K562/ADR cells assessed as suppression of P-gp expression at 0.1 uM after 48 hrs by Western blot analysis relative to control; format: cell-based
[44] = molecular target: T1, Mitogen-activated protein kinase; ERK1/ERK2 (Homo sapiens); assay: Activation of ERK1/2 signalling in human K562/ADR cells assessed as suppression of P-gp expression at 0.1 uM after 48 hrs in presence of ERK1/2 inhibitor U0126 by Western blot analysis relative to control; format: cell-based

T1 sequence (P27361 whole entry, looked up): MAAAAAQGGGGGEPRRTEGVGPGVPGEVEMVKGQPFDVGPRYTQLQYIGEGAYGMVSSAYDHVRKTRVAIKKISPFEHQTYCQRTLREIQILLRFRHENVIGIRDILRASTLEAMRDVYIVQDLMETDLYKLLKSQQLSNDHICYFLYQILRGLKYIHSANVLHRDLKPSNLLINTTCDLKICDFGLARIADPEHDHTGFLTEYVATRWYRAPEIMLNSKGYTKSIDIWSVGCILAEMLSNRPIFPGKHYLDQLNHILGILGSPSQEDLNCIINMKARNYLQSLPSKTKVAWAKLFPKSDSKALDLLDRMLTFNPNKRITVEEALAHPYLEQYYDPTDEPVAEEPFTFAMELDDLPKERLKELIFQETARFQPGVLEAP
T1 sequence (P28482 whole entry, looked up): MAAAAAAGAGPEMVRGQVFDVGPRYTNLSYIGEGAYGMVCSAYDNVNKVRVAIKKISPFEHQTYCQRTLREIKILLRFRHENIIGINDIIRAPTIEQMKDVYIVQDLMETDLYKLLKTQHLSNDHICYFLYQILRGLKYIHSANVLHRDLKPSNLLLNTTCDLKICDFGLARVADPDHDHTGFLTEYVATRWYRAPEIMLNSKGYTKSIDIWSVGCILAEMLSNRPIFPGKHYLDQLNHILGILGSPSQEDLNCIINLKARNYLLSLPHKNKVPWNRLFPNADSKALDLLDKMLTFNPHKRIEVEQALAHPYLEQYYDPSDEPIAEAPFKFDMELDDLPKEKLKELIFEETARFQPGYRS

For `COc1cc([C@@H]2c3cc4c(cc3[C@H](OC(=O)c3cccc(Br)n3)[C@H]3COC(=O)[C@H]23)OCO4)cc(OC)c1OC`, the IC50 (K562/Adr [1]) was 46 nM, the IC50 (K562 [2]) was 25 nM and the “Ratio IC50” value (K562 [3]) was 1.84. For the same compound, the “Ratio IC50” value (K562/Adr [4]) was 0.54, the “Ratio IC50” value (K562/Adr [5]) was 44.02 and the “Ratio IC50” value (K562/Adr [6]) was 408.23. The “Ratio IC50” value (K562 [7]) was 16.52, the “Ratio IC50” value (K562 [8]) was 8.8 and the Activity (K562/Adr [9]) was 53.74%. The Activity (K562/Adr [10]) was 64.17%, the Activity (K562/Adr [11]) was 67.37% and the Activity (K562/Adr [12]) was 7.42%. For the same compound, the Activity (K562/Adr [13]) was 18.84%, the Activity (K562/Adr [14]) was 6.37% and the Activity (K562/Adr [15]) was 41.01%. For the same compound, the Activity (K562/Adr [16]) was 9.15%, the Activity (K562/Adr [17]) was 44.02% and the Activity (K562/Adr [18]) was 5.82%. For the same compound, the Activity (K562/Adr [19]) was “Active”, the Activity (K562/Adr [20]) was “Active” and the fold change (FC) [21] was 0.32. For the same compound, the fold change (FC) [22] was 0.71, the fold change (FC) [23] was 0.07 and the “fold change (FC)” value (K562/Adr [24]) was 0.94. The “fold change (FC)” value (K562/Adr [25]) was 0.89, the “fold change (FC)” value (K562/Adr [26]) was 0.65 and the fold change (FC) [27] was 0.81. It also gave a fold change (FC) [28] of 0.46, a fold change (FC) [29] of 0.71 and a fold change (FC) [30] of 0.25. It also gave a fold change (FC) [31] of 0.15, a fold change (FC) [32] of 0.2 and a fold change (FC) [33] of 0.47. The fold change (FC) [34] was 0.64, the fold change (FC) [35] was 0.52 and the fold change (FC) [36] was 0.38. It also gave a fold change (FC) [37] of 0.57, a fold change (FC) [38] of 0.4 and a fold change (FC) [39] of 0.49. For the same compound, the fold change (FC) [40] was 0.75, the fold change (FC) [41] was 0.59 and the fold change (FC) [42] was 0.26. It also gave a fold change (FC) [43] of 0.1 and a fold change (FC) [44] of 0.31.
With `COc1cc([C@@H]2c3cc4c(cc3[C@H](OC(=O)c3cccnc3OC)[C@H]3COC(=O)[C@H]23)OCO4)cc(OC)c1OC` the IC50 (K562/Adr [1]) was 145 nM, the IC50 (K562 [2]) was 47 nM and the “Ratio IC50” value (K562 [3]) was 3.085.
In the case of `COc1cc([C@@H]2c3cc4c(cc3[C@H](OC(=O)c3ccnc(Cl)c3)[C@H]3COC(=O)[C@H]23)OCO4)cc(OC)c1OC`, the IC50 (K562/Adr [1]) is reported as 57 nM, the IC50 (K562 [2]) is reported as 20 nM and the “Ratio IC50” value (K562 [3]) is reported as 2.85.

— ChEMBL document CHEMBL4477261, “Design, synthesis and evaluation of the multidrug resistance-reversing activity of pyridine acid esters of podophyllotoxin in human leukemia cells” (Bioorg Med Chem Lett, 2016)
